Data taken from US11731973B2, “Substituted pyrazolo[3,4-d]pyrimidines as mTOR inhibitors” (GALDERMA RESEARCH & DEVELOPMENT, priority 2018, dated 2023).
pIC50, pKi: −log10 of the molar value.

Legend:
mTOR = mTOR (Homo sapiens (Human), UniProt P42345); test: Inhibitory activity on mTOR kinase (LANTHASCREEN TR-FRET); format: biochemical; conditions: 1 hour reaction at room temperature
Method: After 1 hour of reaction at room temperature, 10 μL of a solution containing 10 mM final of EDTA and 2 nM final of terbium-labeled antibodies are added. After at least 30 minutes of incubation at room temperature, the TR-FRET signal is measured with a suitable microplate reader according to the supplier's recommendations. […] The IC50 values are calculated using a 4-parameter logistic model with the aid of the XLFit software (IDBS).

mTORC1 = mTORC1 (Homo sapiens (Human), UniProt P42345); test: mTORC1 inhibitory activity: phosphorylation of S6RP in A431 cells (HTRF); format: cell-based; conditions: 3 hours at 37° C.
Method: (§1) The serial dilutions of the test molecules are added (0.1% DMSO final). After incubation for 3 hours at 37° C., the phosphorylation of the biomarkers S6RP (mTORC1) and AKT (mTORC2) is measured using the HTRF technology (Cisbio) according to the supplier's recommendations. […] The IC50 values are calculated using a 4-parameter logistic model with the aid of the XLFit software (IDBS).

mTORC2 = mTORC2 (Homo sapiens (Human), UniProt P42345); test: mTORC2 inhibitory activity: phosphorylation of AKT in A431 cells (HTRF); format: cell-based; conditions: 3 hours at 37° C.
Method: as §1

[1] = system: patch model of atopic dermatitis; test: Patch model of atopic dermatitis (DERP epicutaneous sensitization) in mice; format: in vivo, Balb/c mice; conditions: 0.07% in acetone vehicle, topical
Method: The antagonist (mTOR inhibitor) according to example 31 tested was formulated at 0.07% in an acetone vehicle, applied to the skin of the back of the mouse (10 μl/ear on the two faces) and left for 2 hours before applying the DERP patches. Topical treatments with the antagonist (mTOR inhibitor) or a corticosteroid (betamethasone 17-valerate at 0.01% used as control) were performed only three times in the course of the third and final week of sensitization (on days 44, 47 and 50).
The transepidermal water loss TEWL is measured using a […]® on a control animal. The […]® probe measures the density gradient of water evaporation from the skin indirectly by means of two pairs of sensors (temperature and relative humidity) inside a hollow cylinder. A microprocessor analyzes the values and expresses the evaporation rate in g/h/m2.
The epidermal thickness is measured by histological morphometric analyses on sections 6 μm thick stained with HE using skin samples fixed beforehand with […].
The inflammation score is defined visually as a function of predefined scales of dryness, cutaneous eruption, baldness, excoriation and lichenification. The mean of the five scores attributed to an individual mouse on a given day gives the clinical score attributed on that specific day.
To evaluate the contribution of mTOR to the inflammatory response of atopic dermatitis, the inventors used an atopic dermatitis model described previously based on repeated epicutaneous sensitizations (Spergel et al. JCI 1998; Staumont-Sallé et al. JEM 2015), with Dermatophagoides pteronyssinus (DERP) as antigen. In this model, the skin lesions caused by the atopic dermatitis present inflammation with Th2 dominant characterized by dermal infiltration of CD4+T lymphocytes and of eosinophils accompanied by deposition of eosinophil products and an increase in the cutaneous expression of the Th2 cytokines.
Following the protocol of example 33, the inflammatory response of atopic dermatitis was provoked by epicutaneous sensitization with patches soaked with 100 μg of allergen in sterile saline solution (Dermatophagoides pteronyssinus or DERP) or with a vehicle applied to the abdominal skin 24 hours after shaving and left in place for three periods of one week (with renewal of the patch in the middle of the week), with a 2-week interval between the applications. The presence of the patches and of a transparent occlusive dressing on top prevented the mice from licking, biting and scratching; consequently, the inflammatory response in this model is not due to the itching cycle.
The antagonist according to example 31 (mTOR inhibitor) was formulated at 0.07% in an acetone-based vehicle, applied to the sensitized skin 2 hours before installation of the DERP patches. […]

[2] = days 44, 47 and 50, female Balb/c mice, DERP patches

CC(C)C[C@H](C)n1nc(-c2cc3nc(N)oc3cc2F)c2c(N)nc(N)nc21 [Example 2, 3-(2-amino-6-fluorobenzoxazol-5-yl)-1-((S)-1,3-dimethylbutyl)-1H-pyrazolo[3,4-d]pyrimidine-4,6-diamine] gave a pKi (mTOR) of 9.00, a pIC50 (mTORC1) of 8.92 and a pIC50 (mTORC2) of 8.68.

In the case of CC1(Cn2nc(-c3cc4nc(N)oc4cc3F)c3c(N)nc(N)nc32)CCC1 [Example 4, 3-(2-amino-6-fluorobenzoxazol-5-yl)-1-(1-methylcyclobutylmethyl)-1H-pyrazolo[3,4-d]pyrimidine-4,6-diamine], the pIC50 (mTORC1) was 8.89 and the pIC50 (mTORC2) was 8.47.

For CCC(C)(C)Cn1nc(-c2ccc3oc(N)nc3c2)c2c(N)nc(N)nc21 [Example 8, 3-(2-aminobenzoxazol-5-yl)-1-(2,2-dimethylbutyl)-1H-pyrazolo[3,4-d]pyrimidine-4,6-diamine], the pKi (mTOR) was 9.22, the pIC50 (mTORC1) was 8.92 and the pIC50 (mTORC2) was 8.52.

Work on CCNc1nc2cc(-c3nn(CC(C)(C)C)c4nc(N)nc(N)c34)ccc2o1 [Example 11, 1-(2,2-dimethylpropyl)-3-(2-ethylaminobenzoxazol-5-yl)-1H-pyrazolo[3,4-d]pyrimidine-4,6-diamine] yielded a pKi (mTOR) of 9.10, a pIC50 (mTORC1) of 8.30 and a pIC50 (mTORC2) of 8.23.

With C=CC(C)(C)Cn1nc(-c2ccc3oc(N)nc3c2)c2c(N)nc(N)nc21 [Example 12, 3-(2-aminobenzoxazol-5-yl)-1-(2,2-dimethylbut-3-enyl)-1H-pyrazolo[3,4-d]pyrimidine-4,6-diamine] the pKi (mTOR) was 8.92, the pIC50 (mTORC1) was 8.96 and the pIC50 (mTORC2) was 8.43.

Work on CC(C)(Cn1nc(-c2ccc3oc(N)nc3c2)c2c(N)nc(N)nc21)[C@@H]1CCCO1 [Example 13, (+)-3-(2-aminobenzoxazol-5-yl)-1-((S)-2-methyl-2-tetrahydrofuran-2-ylpropyl)-1H-pyrazolo[3,4-d]pyrimidine-4,6-diamine] yielded a pKi (mTOR) of 8.92, a pIC50 (mTORC1) of 8.85 and a pIC50 (mTORC2) of 8.39.

In the case of C#CC(C)(C)Cn1nc(-c2ccc3oc(N)nc3c2)c2c(N)nc(N)nc21 [Example 14, 3-(2-aminobenzoxazol-5-yl)-1-(2,2-dimethylbut-3-ynyl)-1H-pyrazolo[3,4-d]pyrimidine-4,6-diamine], the pKi (mTOR) was 8.92, the pIC50 (mTORC1) was 8.92 and the pIC50 (mTORC2) was 8.42.

Compound CC(C)(CO)Cn1nc(-c2ccc3oc(N)nc3c2)c2c(N)nc(N)nc21 [Example 15, 3-[4,6-diamino-3-(2-aminobenzoxazol-5-yl)pyrazolo[3,4-d]pyrimidin-1-yl]-2,2-dimethylpropan-1-ol] has a pKi (mTOR) of 8.82, a pIC50 (mTORC1) of 8.77 and a pIC50 (mTORC2) of 8.14.

Compound CSC(C)(C)Cn1nc(-c2ccc3oc(N)nc3c2)c2c(N)nc(N)nc21 [Example 16, 3-(2-aminobenzoxazol-5-yl)-1-(2-methyl-2-methylsulfanylpropyl)-1H-pyrazolo[3,4-d]pyrimidine-4,6-diamine] has a pKi (mTOR) of 8.77, a pIC50 (mTORC1) of 8.66 and a pIC50 (mTORC2) of 7.99.

Work on CC(C)(C)Cn1nc(-c2ccc3oc(N)nc3c2Cl)c2c(N)nc(N)nc21 [Example 17, 3-(2-amino-4-chlorobenzoxazol-5-yl)-1-(2,2-dimethylpropyl)-1H-pyrazolo[3,4-d]pyrimidine-4,6-diamine] yielded a pKi (mTOR) of 8.74, a pIC50 (mTORC1) of 8.92 and a pIC50 (mTORC2) of 8.40.

COc1cc2oc(N)nc2cc1-c1nn(CC(C)(C)C)c2nc(N)nc(N)c12 [Example 18, 3-(2-amino-6-methoxybenzoxazol-5-yl)-1-(2,2-dimethylpropyl)-1H-pyrazolo[3,4-d]pyrimidine-4,6-diamine] gave a pKi (mTOR) of 8.68, a pIC50 (mTORC1) of 8.68 and a pIC50 (mTORC2) of 8.37.

Compound CC(C)(C)Cn1nc(-c2cc3cc(O)cnc3[nH]2)c2c(N)nc(N)nc21 [Example 19, 2-[4,6-diamino-1-(2,2-dimethylpropyl)-1H-pyrazolo[3,4-d]pyrimidin-3-yl]-1H-pyrrolo[2,3-b]pyridin-5-ol] has a pKi (mTOR) of 8.64, a pIC50 (mTORC1) of 7.56 and a pIC50 (mTORC2) of 7.18.

With CCC(C)(C)Cn1nc(-c2cc3nc(N)oc3cc2OC)c2c(N)nc(N)nc21 [Example 20, 3-(2-amino-6-methoxybenzoxazol-5-yl)-1-(2,2-dimethylbutyl)-1H-pyrazolo[3,4-d]pyrimidine-4,6-diamine] the pKi (mTOR) was 8.54, the pIC50 (mTORC1) was 8.68 and the pIC50 (mTORC2) was 8.15.

Compound CC(C)n1nc(-c2ccc3oc(N)nc3c2)c2c(N)nc(N)nc21 [Example 21, 3-(2-aminobenzoxazol-5-yl)-1-isopropyl-1H-pyrazolo[3,4-d]pyrimidine-4,6-diamine] has a pKi (mTOR) of 8.42, a pIC50 (mTORC1) of 8.42 and a pIC50 (mTORC2) of 7.97.

In the case of CCC(CC)(Cn1nc(-c2ccc3oc(N)nc3c2)c2c(N)nc(N)nc21)S(C)(=O)=O [Example 22, 3-(2-aminobenzoxazol-5-yl)-1-(2-ethyl-2-methanesulfonylbutyl)-1H-pyrazolo[3,4-d]pyrimidine-4,6-diamine], the pKi (mTOR) was 8.41, the pIC50 (mTORC1) was 7.99 and the pIC50 (mTORC2) was 7.58.

CC(C)Cn1nc(-c2ccc3oc(N)nc3c2)c2c(Cl)nc(N)nc21 [Example 23, 3-(2-aminobenzoxazol-5-yl)-4-chloro-1-isobutyl-1H-pyrazolo[3,4-d]pyrimidin-6-ylamine] was tested, and the pKi (mTOR) was 8.24, the pIC50 (mTORC1) was 8.55 and the pIC50 (mTORC2) was 8.23.

CC(C)n1nc(-c2ccc3oc(N)nc3c2)c2cnc(N)nc21 [Example 24, 3-(2-aminobenzoxazol-5-yl)-1-isopropyl-1H-pyrazolo[3,4-d]pyrimidin-6-ylamine] showed a pKi (mTOR) of 8.21, a pIC50 (mTORC1) of 8.17 and a pIC50 (mTORC2) of 7.81.

CC(C)[C@H](C)n1nc(-c2cc3nc(N)oc3cc2Cl)c2c(N)nc(N)nc21 [Example 25, 3-(2-amino-6-chlorobenzoxazol-5-yl)-1-((S)-1,2-dimethylpropyl)-1H-pyrazolo[3,4-d]pyrimidine-4,6-diamine] was tested, and the pKi (mTOR) was 8.09, the pIC50 (mTORC1) was 8.35 and the pIC50 (mTORC2) was 7.88.

For CNc1nc(N)c2c(-c3ccc4oc(N)nc4c3)nn(C(C)C)c2n1 [Example 26, 3-(2-Aminobenzoxazol-5-yl)-1-isopropyl-N^6-methyl-1H-pyrazolo[3,4-d]pyrimidine-4,6-diamine], the pKi (mTOR) was 7.87, the pIC50 (mTORC1) was 7.53 and the pIC50 (mTORC2) was 7.21.

In the case of Cc1nc(N)nc2c1c(-c1ccc3oc(N)nc3c1)nn2CC(C)(C)C [Example 27, 5-(6-amino-4-methyl-1-neopentyl-1H-pyrazolo[3,4-d]pyrimidin-3-yl)benzo[d]oxazol-2-amine], the pKi (mTOR) was 7.84, the pIC50 (mTORC1) was 8.09 and the pIC50 (mTORC2) was 7.82.

For CC(C)n1nc(-c2ccc3oc(NC4CC4)nc3c2)c2c(N)nc(N)nc21 [Example 28, 3-(2-cyclopropylaminobenzoxazol-5-yl)-1-isopropyl-1H-pyrazolo[3,4-d]pyrimidine-4,6-diamine], the pKi (mTOR) was 7.68, the pIC50 (mTORC1) was 7.36 and the pIC50 (mTORC2) was 7.40.

For CCC(C)(C)Cn1nc(-c2cc(C)c3oc(N)nc3c2)c2c(N)nc(N)nc21 [Example 29, 3-(2-amino-7-methylbenzoxazol-5-yl)-1-(2,2-dimethylbutyl)-1H-pyrazolo[3,4-d]pyrimidine-4,6-diamine], the pKi (mTOR) was 6.99, the pIC50 (mTORC1) was 6.63 and the pIC50 (mTORC2) was 6.13.

CC(C)n1nc(-c2ccc3oc(N)nc3c2)c2c(Cl)nc(N)nc21 [Example 31, 5-(6-Amino-4-chloro-1-isopropyl-1H-pyrazolo[3,4-d]pyrimidin-3-yl)benzo[d]oxazol-2-amine] gave a pKi (mTOR) of 8.00, a pIC50 (mTORC1) of 8.08 and a pIC50 (mTORC2) of 7.68. The “change in epidermal thickness (epidermal acanthosis)” value [1, 2] was −39%, the “change in inflammatory scores” value [1, 2] was −40 and the “decrease of the increase in the rate of transepidermal water loss TEWL” value [1, 2] was −68%. For the same compound, the “effect on the parameters studied (TEWL, epidermal thickness, inflammation score)” value ([1]; DERP patch model in mice) was “reduces all the parameters studied”.
